These results are taken from ChEMBL document CHEMBL1128242, “Polyiodinated triglyceride analogs as potential computed tomography imaging agents for the liver” (J Med Chem, 1995).

Each structure is given as a SMILES string.

Common to all, as to format: ADME, organism-based
Data set [1] relates to Rattus norvegicus. As to the kind of experiment: Distribution of radioactivity was determined in liver at 30 min after intravenous administration of 1,3-Disubstituted Triacylglycerols in rats. The settings on record: in vivo, 0.5 h.
The test system of data set [2] is Rattus norvegicus. As to the kind of experiment: Distribution of radioactivity was determined in lung at 3h after intravenous administration of [125I]-labeled 2-oleoglycerol 1,3-Bis-[omega-(3-amino-2,4,6-triiodophenyl)alkanoates] in rats. The following applies: in vivo.
For data set [3], the system named is Rattus norvegicus. As to the kind of experiment: Distribution of radioactivity was determined in lung at 24 hr after intravenous administration of [125I]-labeled 2-oleoglycerol 1,3-Bis-[omega-(3-amino-2,4,6-triiodophenyl)alkanoates] in rats. The settings on record: in vivo.
For data set [4], the system named is Rattus norvegicus. The experiment in a line: Distribution of radioactivity was determined in spleen at 3h after intravenous administration of 1,3-Disubstituted Triacylglycerols in rats. The settings on record: in vivo.
For data set [5], the system named is Rattus norvegicus. As to the kind of experiment: Distribution of radioactivity was determined in spleen at 30 min after intravenous administration of [125I]-labeled 2-oleoglycerol 1,3-Bis-[omega-(3-amino-2,4,6-triiodophenyl)alkanoates] in rats. The settings on record: in vivo, 0.5 h.
Data set [6] has as its system Rattus norvegicus. The experiment in a line: Distribution of radioactivity was determined in blood at 30 min after intravenous administration of [125I]-labeled 2-oleoglycerol 1,3-Bis-[omega-(3-amino-2,4,6-triiodophenyl)alkanoates] in rats. The following applies: in vivo, 0.5 h.
The test system of data set [7] is Rattus norvegicus. The experiment in a line: Distribution of radioactivity was determined in blood at 24 hr after intravenous administration of [125I]-labeled 2-oleoglycerol 1,3-Bis-[omega-(3-amino-2,4,6-triiodophenyl)alkanoates] in rats. The following applies: in vivo.
The test system of data set [8] is Rattus norvegicus. The experiment in a line: Analysis of lipid-soluble radioactivity in plasma 0.5 hour after iv administration of [125I]-labeled 2-Oleoyl 1,3-disubstituted Triacylglycerols expressed as %parent compound (by TLC with authentic [125I]-labeled standard) from rat. The following applies: in vivo.
Data set [9] has as its system Rattus norvegicus. As to the kind of experiment: Distribution of radioactivity was determined in kidney at 24 hr after intravenous administration of [125I]-labeled 2-oleoglycerol 1,3-Bis-[omega-(3-amino-2,4,6-triiodophenyl)alkanoates] in rats. The following applies: in vivo.
Data set [10] has as its system Rattus norvegicus. The experiment in a line: Polyacrylamide Gel Electrophoresis (PAGE) to determined the concentration of stacking gel(SG) in rats after iv administration of [125I]-labeled 2-Oleolyl 1,3-disubstituted triglycerols was reported. The settings on record: in vivo.
Data set [11] concerns Rattus norvegicus. As to the kind of experiment: Analysis of lipid-soluble radioactivity in liver 24 hour after iv administration of [125I]-labeled 2-Oleoyl 1,3-disubstituted Triacylglycerols and represented as % CHCl3/CH3OH from rat. The following applies: in vivo.
Data set [12] deals with Rattus norvegicus. The experiment in a line: Distribution of radioactivity was determined in lung at 30 min after intravenous administration of [125I]-labeled 2-oleoglycerol 1,3-Bis-[omega-(3-amino-2,4,6-triiodophenyl)alkanoates] in rats. The following applies: in vivo, 0.5 h.
In data set [13] the test system is Rattus norvegicus. As to the kind of experiment: Distribution of radioactivity was determined in blood at 24 hr after intravenous administration of 1,3-Disubstituted Triacylglycerols in rats. The following applies: in vivo.

Regarding `CCCCCCCC/C=C/CCCCCCCC(=O)OC(COC(=O)C(CC)Cc1c(I)cc(I)c(N)c1I)COC(=O)C(CC)Cc1c(I)cc(I)c(N)c1I` (centres undefined), in the data set on Rattus norvegicus [1], the Radioactivity per organ came to 78 % dose/organ. Besides, the Distribution of radioactivity is 0.2 % dose/g with Rattus norvegicus [2]; 0.62 % dose/g in the data set on Rattus norvegicus [3]; 11.3 % dose/organ in the data set on Rattus norvegicus [4]; 24.8 % dose/g in the data set on Rattus norvegicus [5]; 0.26 % dose/g in the data set on Rattus norvegicus [6]; 0.01 % dose/g with Rattus norvegicus [7]. In addition, the Distribution of radioactivity with Rattus norvegicus [9] turned out to be 0.05 % dose/g; in the data set on Rattus norvegicus [12], 0.34 % dose/g; in the data set with Rattus norvegicus [13] it was 0.1 % dose/organ. The Lipid-soluble radioactivity with Rattus norvegicus [8] is given as 26.5; in the data set with Rattus norvegicus [11] it was 93.7. Further, the Radioactivity with Rattus norvegicus [10] is listed as 83.5%.

Turning to `CCCCCCCC/C=C/CCCCCCCC(=O)OC(COC(=O)CCCCc1c(I)cc(I)c(N)c1I)COC(=O)CCCCc1c(I)cc(I)c(N)c1I`, in the data set with Rattus norvegicus [1], the Radioactivity per organ came to 65.1 % dose/organ. Moreover, the Distribution of radioactivity with Rattus norvegicus [2] turned out to be 0.46 % dose/g; in the data set on Rattus norvegicus [3], 0.59 % dose/g; in the data set with Rattus norvegicus [4], 8 % dose/organ; in the data set on Rattus norvegicus [5] it was 17.9 % dose/g; in the data set with Rattus norvegicus [6] it was 0.08 % dose/g; with Rattus norvegicus [7], 0.14 % dose/g. Moreover, the Distribution of radioactivity with Rattus norvegicus [9] came to 0.2 % dose/g; in the data set with Rattus norvegicus [12], 0.54 % dose/g; in the data set on Rattus norvegicus [13], 1.4 % dose/organ. The results for the Lipid-soluble radioactivity with Rattus norvegicus [8] and in the data set with Rattus norvegicus [11] were 42.3 and 88.8, respectively. In addition, the Radioactivity with Rattus norvegicus [10] is given as 65.6%.

Turning to `CCCCCCCC/C=C/CCCCCCCC(=O)OC(COC(=O)CCCCCCc1c(I)cc(I)c(N)c1I)COC(=O)CCCCCCc1c(I)cc(I)c(N)c1I`, the Radioactivity per organ in the data set with Rattus norvegicus [1] amounted to 67.7 % dose/organ. Besides, the Distribution of radioactivity with Rattus norvegicus [2] turned out to be 0.34 % dose/g; in the data set with Rattus norvegicus [3], 0.29 % dose/g; in the data set with Rattus norvegicus [4] it was 8.2 % dose/organ; in the data set with Rattus norvegicus [5] it was 21.8 % dose/g; with Rattus norvegicus [6] it was 0.59 % dose/g; with Rattus norvegicus [7] it was 0.22 % dose/g. Besides, the Distribution of radioactivity in the data set on Rattus norvegicus [9] was 0.22 % dose/g; in the data set with Rattus norvegicus [12] it was 0.66 % dose/g; in the data set on Rattus norvegicus [13], 2.5 % dose/organ. Also, the values for the Lipid-soluble radioactivity with Rattus norvegicus [8] and with Rattus norvegicus [11] were 0 and 30.2, respectively. Besides, the Radioactivity with Rattus norvegicus [10] is 28.1%.

On to `CCCCCCCC/C=C/CCCCCCCC(=O)OC(COC(=O)Cc1c(I)cc(I)c(N)c1I)COC(=O)Cc1c(I)cc(I)c(N)c1I`, for which the Radioactivity per organ with Rattus norvegicus [1] is 69.8 % dose/organ. Moreover, the Distribution of radioactivity in the data set on Rattus norvegicus [2] amounted to 0.38 % dose/g; in the data set on Rattus norvegicus [3] it was 0.52 % dose/g; in the data set on Rattus norvegicus [4], 14.5 % dose/organ; with Rattus norvegicus [5], 23.4 % dose/g; in the data set with Rattus norvegicus [6] it was 0.69 % dose/g; in the data set with Rattus norvegicus [7] it was 0.01 % dose/g. For the same molecule, the Distribution of radioactivity with Rattus norvegicus [9] stood at 0.07 % dose/g; in the data set on Rattus norvegicus [12], 0.72 % dose/g; with Rattus norvegicus [13], 0.2 % dose/organ. For the same molecule, in the data set with Rattus norvegicus [10], the Radioactivity is given as 95.7%. For the same molecule, the Lipid-soluble radioactivity with Rattus norvegicus [11] is 59.5.

On to `CCCCCCCC/C=C/CCCCCCCC(=O)OC(COC(=O)CCCCCc1c(I)cc(I)c(N)c1I)COC(=O)CCCCCc1c(I)cc(I)c(N)c1I`, for which the Radioactivity per organ in the data set on Rattus norvegicus [1] came out at 66.8 % dose/organ. Moreover, the Distribution of radioactivity came out at 0.21 % dose/g in the data set with Rattus norvegicus [2]; 0.26 % dose/g in the data set with Rattus norvegicus [3]; 11.3 % dose/organ in the data set on Rattus norvegicus [4]; 24.4 % dose/g in the data set on Rattus norvegicus [5]; 0.38 % dose/g in the data set with Rattus norvegicus [6]; 0.1 % dose/g with Rattus norvegicus [7]. The Distribution of radioactivity in the data set on Rattus norvegicus [9] turned out to be 0.25 % dose/g; in the data set on Rattus norvegicus [12], 0.26 % dose/g; with Rattus norvegicus [13], 1.1 % dose/organ. For the same molecule, the Lipid-soluble radioactivity in the data set on Rattus norvegicus [8] is reported as 82.2; in the data set with Rattus norvegicus [11], 90.3. Also, the Radioactivity with Rattus norvegicus [10] worked out at 72.6%.
